Assay [1] concerns the target T1, human recombinant ghrelin receptor (GHS-R1a) (Homo sapiens, UniProt Q92847).
T1 construct: host or cells: CHO-K1
The assay can be described thus: hGHS-R1a Ca assay (Fluo-4 calcium assay in CHO-K1 cells). It is filed as cell-based. Conditions: CHO-K1 cells expressing human GHS-R1a; agonist dose response up to 30 μM. How it is done: (§1) Chinese hamster ovary (CHO-K1) cells expressing human recombinant ghrelin receptor (GHS-R1a) were purchased from Euroscreen (ES-410-C) and propagated in UltraCHO medium containing glutamine and supplemented with 1% heat inactivated foetal calf serum (FCS), 100 U/ml penicillin, 100 mg/l streptomycin and 0.8 g/l geneticin. Cells were sub-cultured twice a week with a 1:10 dilution. For passaging, cells were washed with 1×DPBS without calcium and magnesium, trypsinised for 10 min with 0.05% Trypsin/EDTA and resuspended in cell culture medium.
Cells were diluted to achieve 1×10^6 cells/ml, seeded in 384-well black clear bottom CellBind plates at 25000 cells/well (25 ul) and incubated overnight at 37° C./5% CO2 Cells were expected to be 85-90% confluent on the day of assay (checked under the microscope) to ensure a high quality assay. Media was manually removed and 40 μl of loading solution containing probenecid and Fluo-4 no wash dye (a calcium indicator, Invitrogen F36206) were added to each well. After 30 min at 37° C. followed by another 30 min at RT, cpds were added to the wells. To generate a dose response up to 30 μM, 10 mM compound stocks in 100% (v/v) DMSO were firstly diluted in 50% (v/v) DMSO. Then, serial dilutions aimed at a full logarithmic dose responses (8 point) were performed in assay buffer [1×HBSS, 20 mM Hepes, 0.1% (w/v) BSA] to give 2.5% (v/v) DMSO and 5× final compound concentrations. The final assay DMSO concentration was 0.5% (v/v). After loading the cells with Fluo-4 containing solution, plates were read on a CellLux instrument (Perkin Elmer). A protocol set up to add 10 μl of 5× compound and to read the plate for 60 sec after adding the compound at 17th sec was used. Fluorescence excitation took place at 494 nm and emission at 516 nm. EC50 values of agonists were calculated by fitting the percent stimulation over background [(Max−Min)/Min] using the nonlinear logistic function of the Prism 5 software (GraphPad, USA).

The target of assay [2] is T1, human recombinant ghrelin receptor (GHS-R1a). Briefly: hGHS-R1a cAMP assay (HTRF cAMP dynamic 2 kit, CHO-hGHS-R1a cells). Conditions: 60 min incubation, dose response up to 30 μM. It is filed as cell-based. The protocol:
as §1
The Homogeneous Time-Resolved Fluorescence (HTRF) cAMP dynamic 2 kit (Cisbio International, France) was used as follows. CHO-hGHS-R1a or CHO-rGHS-R1a cells were seeded in a volume of 25 μl culture media at 10,000 cells/well (400,000 cells/ml) in Greiner white 384-well high volume plates and incubated overnight (18-24 h) at 37° C./5% CO2. Then, media was removed and 6 μl assay buffer [HBSS, 10 mM Hepes, 0.2% (w/v) BSA, 1.7 mM IBMX, (pH7.4)] were added to the wells. To generate a dose response up to 30 μM, 10 mM compound stocks in 100% (v/v) DMSO were firstly diluted in 50% (v/v) DMSO followed by a further dilution into assay buffer. Then, 4 μl of 2.5× compound (dose response as 9 point log serial dilution in assay buffer from 30 μM as maximum concentration) were added to each well achieving a final DMSO assay concentration of 0.8% (v/v). 0.1 μM forskolin was added as positive control. After 30 min (rGHS-R1a cell line) or 60 min (hGHS-R1a cell line) incubation at 37° C./5% CO2, 5 μl of cAMP-d2 and 5 μl of anti-cAMP antibody-cryptate, (both made in lysis buffer), were added to the plate followed by 1 h incubation at RT. During this time, cAMP produced by the cells competed with cAMP-d2 for the anti-cAMP antibody-cryptate molecule. Then, the plate was read on the Pherastar instrument (BMG, Germany) at two different emission wavelengths (620 and 650 nm). Increasing levels of endogenous cAMP produced by cells could be followed by a decrease of FRET fluorescent signal and viceversa. Values represented by a change in arbitrary fluorescence ratios (665/620) were converted into cAMP concentrations by using a standard curve, the reagents for which were supplied with the kit. EC50 values of agonists were calculated using the nonlinear logistic function of the Prism 5 software (GraphPad, USA). Emax were expressed as relative values of the ghrelin response, which was defined as 100%.
In general terms: Cyclic AMP is a second messenger, typically raised through Gs and lowered through Gi signalling.

T1 sequence (Q92847 whole entry): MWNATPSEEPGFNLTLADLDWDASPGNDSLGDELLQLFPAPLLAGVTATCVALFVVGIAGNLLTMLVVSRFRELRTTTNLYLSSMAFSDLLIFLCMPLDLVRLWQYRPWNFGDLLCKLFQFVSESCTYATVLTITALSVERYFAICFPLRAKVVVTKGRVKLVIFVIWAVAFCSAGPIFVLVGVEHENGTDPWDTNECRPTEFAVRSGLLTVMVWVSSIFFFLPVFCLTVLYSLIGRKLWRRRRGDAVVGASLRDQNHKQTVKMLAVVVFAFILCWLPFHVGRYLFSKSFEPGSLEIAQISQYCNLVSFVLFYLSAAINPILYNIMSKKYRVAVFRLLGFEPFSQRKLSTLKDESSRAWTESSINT

As for `CN1CC(c2ccccc2)C2(CCCN(C(=O)[C@@H](COCc3ccccc3)NC(=O)C(C)(C)N)C2)C1=O` (single isomer, unassigned) [Example 1.21], the results for the concentration for a half-maximal effect (EC50) in assay [1] and in assay [2] were 0.0021 µM and 1.93 µM, respectively.
In the case of `CN1CC(c2ccc(F)cc2)C2(CCCN(C(=O)[C@@H](Cc3c[nH]c4ccccc34)NC(=O)C(C)(C)N)C2)C1=O` (single isomer, unassigned) [Example 1.11], the values for the EC50 in assay [1] and in assay [2] were 0.0003 µM and 0.023 µM, respectively.
For `CC(C)N1CC(c2ccccc2)C2(CCCN(C(=O)[C@@H](COCc3ccccc3)NC(=O)C(C)(C)N)C2)C1=O` (single isomer, unassigned) [Example 1.5] the same measures were 0.0001 µM and 0.02 µM.
For `CN1C[C@@H](c2ccccc2)[C@@]2(CCCN(C(=O)[C@@H](COCc3ccccc3)NC(=O)C(C)(C)N)C2)C1=O` (single isomer, unassigned) [Example 1.0(ii)], in that order: 0.00016 µM and 0.043 µM.
For `CN1CC(c2ccccc2)C2(CCCN(C(=O)[C@@H](COCC3CCCCC3)NC(=O)C(C)(C)N)C2)C1=O` (single isomer, unassigned) [Example 1.60], the EC50 is 0.0003 µM in assay [1] and 0.047 µM in assay [2].
For `CN1CC(c2ccccc2)C2(CCCN(C(=O)[C@@H](COCc3ccccc3)NC(=O)C(C)(C)N)CC2)C1=O` (single isomer, unassigned) [Example 9.0(iv)] the same measures were 0.0004 µM and 0.086 µM.
For `CN1C[C@H](c2ccccc2)[C@]2(CCCN(C(=O)[C@@H](COCc3ccccc3)NC(=O)C(C)(C)N)C2)C1=O` (single isomer, unassigned) [Example 1.0(i)] the same measures were 0.0023 µM and 1.34 µM.
For `C[C@H](OCc1ccccc1)[C@@H](NC(=O)C(C)(C)N)C(=O)N1CCCC2(C1)C(=O)N(C)CC2c1ccccc1` (single isomer, unassigned) [Example 1.34], in that order: 0.0005 µM and 0.184 µM.
Take `CN1CN(c2ccccc2)C2(CCCN(C(=O)[C@@H](COCc3ccccc3)NC(=O)C(C)(C)N)C2)C1=O` (single isomer, unassigned) [Example 1.61]: the EC50 was 0.0029 µM in assay [1] and 0.517 µM in assay [2].
For `Cc1ccc(COC[C@@H](NC(=O)C(C)(C)N)C(=O)N2CCCC3(C2)C(=O)N(C)CC3c2ccc(F)cc2)cc1` (single isomer, unassigned) [Example 1.29] the same measures were 0.00035 µM and 0.049 µM.
For `CN1CC(c2ccc(F)cc2)C2(CCCN(C(=O)[C@@H](COCc3ccc(Cl)cc3)NC(=O)C(C)(C)N)C2)C1=O` (single isomer, unassigned) [Example 1.57], in that order: 0.00022 µM and 0.043 µM.
For `CN1CC(c2ccccc2)C2(CCCN(C(=O)[C@@H](COCc3ccccc3)NC(=O)C(C)(C)N)C2)C1=O` (single isomer, unassigned) [Example 1.20] the same measures were 0.0016 µM and 2.28 µM.
For the compound `CNC(C)(C)C(=O)N[C@H](COCc1ccccc1)C(=O)N1CCCC2(C1)C(=O)N(C)CC2c1ccccc1` (single isomer, unassigned) [Example 1.17], the EC50 was 0.001 µM in assay [1] and 0.082 µM in assay [2].
For `Cc1ccccc1C1CN(C)C(=O)C12CCCN(C(=O)[C@@H](COCc1ccccc1)NC(=O)C(C)(C)N)C2` (single isomer, unassigned) [Example 1.51], in that order: 0.0002 µM and 0.067 µM.
For `CN1N=C(c2ccccc2)C2(CCCN(C(=O)[C@@H](COCc3ccccc3)NC(=O)C(C)(C)N)C2)C1=O` (mixture of isomers) [Example 1.47, 2-Amino-N-[(R)-1-benzyloxymethyl-2-(3-methyl-4-oxo-1-phenyl-2,3,7-triaza-spiro[4.5]dec-1-en-7-yl)-2-oxo-ethyl]-2-methyl-propionamide], in that order: 0.0017 µM and 0.385 µM.
As to `CN(C)C(=O)CN1CC(c2ccccc2)C2(CCCN(C(=O)[C@@H](COCc3ccccc3)NC(=O)C(C)(C)N)C2)C1=O` (single isomer, unassigned) [Example 1.16], the values for the 50% effective concentration (EC50) in assay [1] and in assay [2] were 0.0005 µM and 0.039 µM, respectively.
Regarding `CN1CC(c2ccccc2)C2(CCCN(C(=O)[C@@H](CCCc3ccccc3)NC(=O)C(C)(C)N)C2)C1=O` (single isomer, unassigned) [Example 1.32], the figures for the concentration for a half-maximal effect (EC50) in assay [1] and in assay [2] were 0.0003 µM and 0.011 µM, respectively.
As for `COc1ccc(COC[C@@H](NC(=O)C(C)(C)N)C(=O)N2CCCC3(C2)C(=O)N(C)CC3c2ccccc2)cc1` (single isomer, unassigned) [Example 6.0(ii), 2-Amino-N-[(R)-1-(4-methoxy-benzyloxymethyl)-2-((4S,5R)-2-methyl-1-oxo-4-phenyl-2,7-diaza-spiro[4.5]dec-7-yl)-2-oxo-ethyl]-2-methyl-propionamide or 2-Amino-N-[(R)-1-(4-methoxy-benzyloxymethyl)-2-(4R,5S)-2-methyl-1-oxo-4-phenyl-2,7-diaza-spiro[4.5]dec-7-yl)-2-oxo-ethyl]-2-methyl-propionamide], the EC50 in assay [1] is 0.0005 µM; in assay [2] it was 0.109 µM.
For `CN1C(=O)C2(CCCN(C(=O)[C@@H](COCc3ccccc3)NC(=O)C(C)(C)N)C2)C1c1ccccc1` (single isomer, unassigned) [Example 2.0(ii)], in that order: 0.0011 µM and 0.456 µM.
For `CCN1CC(c2ccccc2)C2(CCCN(C(=O)[C@@H](COCc3ccccc3)NC(=O)C(C)(C)N)C2)C1=O` (single isomer, unassigned) [Example 1.25] the same measures were 0.0003 µM and 0.043 µM.
For `Cc1ccc(COC[C@@H](NC(=O)C(C)(C)N)C(=O)N2CCCC3(C2)C(=O)N(C)CC3c2ccccc2)cc1` (single isomer, unassigned) [Example 1.55] the same measures were 0.00013 µM and 0.072 µM.
On to `Cc1ccc(COC[C@@H](NC(=O)C(C)(C)N)C(=O)N2CCCC3(C2)C(=O)N(C)CC3c2ccc(F)cc2)cc1` (stereo partly drawn) [Example 1.72, 2-amino-N-((2R)-1-(4-(4-fluorophenyl)-2-methyl-1-oxo-2,7-diazaspiro[4.5]decan-7-yl)-3-((4-methylbenzyl)oxy)-1-oxopropan-2-yl)-2-methylpropanamide], for which the EC50 in assay [1] was 0.005 µM; in assay [2] it was 2.56 µM.
For `CCC(N)(CC)C(=O)N[C@H](COCc1ccccc1)C(=O)N1CCC[C@@]2(C1)C(=O)N(C)C[C@H]2c1ccccc1` [Example 1.71, 2-amino-N-((R)-3-(benzyloxy)-1-((4S,5R)-2-methyl-1-oxo-4-phenyl-2,7-diazaspiro[4.5]decan-7-yl)-1-oxopropan-2-yl)-2-ethylbutanamide], in that order: 0.0054 µM and 1.14 µM.
For `CN1C[C@@H](c2ccc(F)cc2)[C@@]2(CCCN(C(=O)[C@@H](COCc3ccccc3)NC(=O)C(C)(C)N)C2)C1=O` [Example 1.2, 2-Amino-N-((2R)-3-(benzyloxy)-1-((4S,5R)-4-(4-fluorophenyl)-2-methyl-1-oxo-2,7-diazaspiro[4.5]decan-7-yl)-1-oxopropan-2-yl)-2-methylpropanamide] the same measures were 0.0001 µM and 0.055 µM.

Broadly, the EC50 is the concentration needed to bring the measured effect to its halfway point.

For the origin of these results see US8546416B2, “3-spirocyclic piperidine derivatives as ghrelin receptor agonists” (Novartis AG, priority 2011, dated 2013).
